Measurements from PubChem BioAssay (NCI).
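All cell lines were grown in 96-well plates and treated with compound for 48 hours. TGI marks complete inhibition of growth.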

Assays:
Assay in all cases: NCI-60 cell line screen, 48 h
KM12 colon = system: KM12 colon
SF-539 CNS = system: SF-539 CNS
IGROV1 ovarian = system: IGROV1 ovarian
RXF 393 renal = system: RXF 393 renal
COLO 205 colon = system: COLO 205 colon
ACHN renal = system: ACHN renal
NCI-H522 lung = system: NCI-H522 lung
SF-295 CNS = system: SF-295 CNS
A498 renal = system: A498 renal

`CCOc1ccc(N=Nc2c(-c3ccccc3)nn(C(=O)CC(=O)Nc3ccccc3Cl)c2-c2ccccc2)cc1` showed a TGI (KM12 colon) greater than 100 µM, a TGI (SF-539 CNS) greater than 100 µM and a TGI (IGROV1 ovarian) greater than 100 µM. The TGI (RXF 393 renal) was greater than 100 µM, the TGI (COLO 205 colon) was greater than 100 µM and the TGI (ACHN renal) was greater than 100 µM. It also gave a TGI (NCI-H522 lung) greater than 100 µM and a TGI (SF-295 CNS) greater than 100 µM.

With `Nc1cccc(C(=O)/C=C/c2ccccc2O)c1` the TGI (KM12 colon) was greater than 100 µM, the TGI (SF-539 CNS) was greater than 100 µM and the TGI (IGROV1 ovarian) was greater than 100 µM. For the same compound, the TGI (RXF 393 renal) was greater than 100 µM, the TGI (COLO 205 colon) was greater than 100 µM and the TGI (ACHN renal) was greater than 100 µM. The TGI (A498 renal) was greater than 100 µM, the TGI (NCI-H522 lung) was greater than 100 µM and the TGI (SF-295 CNS) was greater than 100 µM.

Work on `CCOC(=O)C(=O)Nc1nc2ccc(OC)cc2s1` yielded a TGI (KM12 colon) greater than 100 µM, a TGI (SF-539 CNS) greater than 100 µM and a TGI (IGROV1 ovarian) greater than 100 µM. The TGI (COLO 205 colon) was greater than 100 µM, the TGI (ACHN renal) was greater than 100 µM and the TGI (A498 renal) was greater than 100 µM. It also gave a TGI (SF-295 CNS) greater than 100 µM.

`Cc1cccc(NC(=O)CSc2nnc(-c3ccc(N=Cc4ccc(Cl)cc4)cc3)o2)c1` gave a TGI (KM12 colon) greater than 100 µM, a TGI (RXF 393 renal) greater than 100 µM and a TGI (COLO 205 colon) greater than 100 µM. For the same compound, the TGI (ACHN renal) was greater than 100 µM, the TGI (NCI-H522 lung) was greater than 100 µM and the TGI (SF-295 CNS) was greater than 100 µM.

Compound `O=C(N[C@H]1CC2(C=C(I)C(=O)C(I)=C2)OC1=O)OCc1ccccc1` has a TGI (KM12 colon) of 29.5 µM, a TGI (SF-539 CNS) of 32 µM and a TGI (RXF 393 renal) of 28.8 µM. It also gave a TGI (COLO 205 colon) of 28.1 µM, a TGI (ACHN renal) of 32.8 µM and a TGI (A498 renal) greater than 100 µM. The TGI (NCI-H522 lung) was 26.2 µM and the TGI (SF-295 CNS) was 37.3 µM.

Compound `Cc1ccc(-n2cc(/C(N)=N/O)c3ccccc3c2=O)cc1` has a TGI (KM12 colon) greater than 100 µM, a TGI (SF-539 CNS) greater than 100 µM and a TGI (IGROV1 ovarian) greater than 100 µM. The TGI (COLO 205 colon) was greater than 100 µM, the TGI (ACHN renal) was greater than 100 µM and the TGI (NCI-H522 lung) was greater than 100 µM. For the same compound, the TGI (SF-295 CNS) was greater than 100 µM.

Compound `C=C(/C=C/C=C(\CO)CCC=C(C)C)[C@H]1CCC2([C@H](CCCO)/C(=C(/C)C=O)CC[C@]2(C)O)[C@H]1O` (stereo partly drawn) has a TGI (KM12 colon) greater than 100 µM, a TGI (SF-539 CNS) greater than 100 µM and a TGI (IGROV1 ovarian) greater than 100 µM. For the same compound, the TGI (COLO 205 colon) was greater than 100 µM, the TGI (ACHN renal) was greater than 100 µM and the TGI (A498 renal) was greater than 100 µM. It also gave a TGI (SF-295 CNS) greater than 100 µM.

For `CN(C)CN(C)c1nc(N(C)C)nc(N(C)C)n1`, the TGI (KM12 colon) was greater than 100 µM, the TGI (SF-539 CNS) was greater than 100 µM and the TGI (IGROV1 ovarian) was greater than 100 µM. The TGI (RXF 393 renal) was greater than 100 µM, the TGI (COLO 205 colon) was greater than 100 µM and the TGI (ACHN renal) was greater than 100 µM. The TGI (A498 renal) was greater than 100 µM, the TGI (NCI-H522 lung) was greater than 100 µM and the TGI (SF-295 CNS) was greater than 100 µM.

`Cc1cc2nc3c(C(OC4OC(CO)C(O)C(O)C4O)C(O)CO)nn(-c4ccc(F)cc4)c3nc2cc1C` (stereo not drawn) gave a TGI (KM12 colon) greater than 100 µM, a TGI (SF-539 CNS) greater than 100 µM and a TGI (RXF 393 renal) greater than 100 µM. The TGI (ACHN renal) was greater than 100 µM, the TGI (A498 renal) was greater than 100 µM and the TGI (NCI-H522 lung) was greater than 100 µM. The TGI (SF-295 CNS) was greater than 100 µM.

For `c1ccc2c(c1)n1nnnc1c1nnnn21`, the TGI (KM12 colon) was greater than 100 µM, the TGI (SF-539 CNS) was greater than 100 µM and the TGI (IGROV1 ovarian) was greater than 100 µM. The TGI (RXF 393 renal) was greater than 100 µM, the TGI (COLO 205 colon) was greater than 100 µM and the TGI (ACHN renal) was greater than 100 µM. For the same compound, the TGI (A498 renal) was greater than 100 µM, the TGI (NCI-H522 lung) was greater than 100 µM and the TGI (SF-295 CNS) was greater than 100 µM.

`COc1cc2c(c(OC)c1OC)-c1ccc(SC)c(=O)cc1C(CC(=O)Oc1ccccc1F)C2` (stereo not drawn) gave a TGI (KM12 colon) of 0.0493 µM, a TGI (IGROV1 ovarian) greater than 7.5 µM and a TGI (COLO 205 colon) of 0.0376 µM. For the same compound, the TGI (ACHN renal) was greater than 7.5 µM, the TGI (A498 renal) was 6.77 µM and the TGI (NCI-H522 lung) was 0.0307 µM. For the same compound, the TGI (SF-295 CNS) was greater than 7.5 µM.

`O=C(Nc1c(Cl)cc([N+](=O)[O-])cc1Cl)C(=O)C(C(=O)c1ccncc1)C1OC(=O)c2ccccc21` (stereo not drawn) gave a TGI (KM12 colon) greater than 100 µM, a TGI (IGROV1 ovarian) greater than 100 µM and a TGI (RXF 393 renal) greater than 100 µM. For the same compound, the TGI (COLO 205 colon) was greater than 100 µM, the TGI (ACHN renal) was greater than 100 µM and the TGI (A498 renal) was greater than 100 µM. It also gave a TGI (NCI-H522 lung) greater than 100 µM and a TGI (SF-295 CNS) greater than 100 µM.

With `Cc1c(C(=O)/C=C/c2ccc3c(c2)OCO3)[n+](=O)c2ccccc2n1[O-]` the TGI (KM12 colon) was 90.5 µM, the TGI (SF-539 CNS) was 49.3 µM and the TGI (IGROV1 ovarian) was greater than 100 µM. For the same compound, the TGI (RXF 393 renal) was 54.1 µM, the TGI (COLO 205 colon) was 78.7 µM and the TGI (ACHN renal) was greater than 100 µM. It also gave a TGI (A498 renal) of 64 µM, a TGI (NCI-H522 lung) of 36.9 µM and a TGI (SF-295 CNS) of 95.7 µM.

Work on `Clc1ccc(/C=C/c2csnn2)cc1` yielded a TGI (KM12 colon) greater than 100 µM, a TGI (SF-539 CNS) greater than 100 µM and a TGI (IGROV1 ovarian) greater than 100 µM. For the same compound, the TGI (RXF 393 renal) was greater than 100 µM, the TGI (COLO 205 colon) was greater than 100 µM and the TGI (ACHN renal) was greater than 100 µM. It also gave a TGI (A498 renal) greater than 100 µM, a TGI (NCI-H522 lung) greater than 100 µM and a TGI (SF-295 CNS) greater than 100 µM.

With `O=C(/C=N/O)Nc1cccc(Cl)c1I` the TGI (KM12 colon) was greater than 100 µM, the TGI (IGROV1 ovarian) was greater than 100 µM and the TGI (RXF 393 renal) was 74.9 µM. The TGI (COLO 205 colon) was greater than 100 µM, the TGI (ACHN renal) was greater than 100 µM and the TGI (A498 renal) was greater than 100 µM. The TGI (NCI-H522 lung) was greater than 100 µM and the TGI (SF-295 CNS) was greater than 100 µM.

With `CNC(=O)N(CCCCC(NC(C)=O)C(=O)NCc1ccccc1)Cc1ccccc1` (stereo not drawn) the TGI (KM12 colon) was greater than 100 µM, the TGI (SF-539 CNS) was greater than 100 µM and the TGI (IGROV1 ovarian) was greater than 100 µM. The TGI (RXF 393 renal) was greater than 100 µM, the TGI (COLO 205 colon) was greater than 100 µM and the TGI (ACHN renal) was greater than 100 µM. For the same compound, the TGI (A498 renal) was greater than 100 µM, the TGI (NCI-H522 lung) was greater than 100 µM and the TGI (SF-295 CNS) was greater than 100 µM.

`COc1cc([C@H]2c3cc4c(cc3[C@H](NCc3ccc(F)cc3)C3COC(=O)[C@H]32)OCO4)cc(OC)c1O` (stereo partly drawn) gave a TGI (KM12 colon) of 15.1 µM, a TGI (SF-539 CNS) of 5.07 µM and a TGI (IGROV1 ovarian) of 34 µM. It also gave a TGI (RXF 393 renal) of 42.8 µM, a TGI (COLO 205 colon) of 31.5 µM and a TGI (ACHN renal) of 4.34 µM. It also gave a TGI (A498 renal) of 8.02 µM, a TGI (NCI-H522 lung) of 9.48 µM and a TGI (SF-295 CNS) of 17.9 µM.

With `O=S1(=O)CS(=O)(=O)OCCCCCO1` the TGI (KM12 colon) was greater than 100 µM, the TGI (IGROV1 ovarian) was greater than 100 µM and the TGI (RXF 393 renal) was greater than 100 µM. For the same compound, the TGI (COLO 205 colon) was greater than 100 µM, the TGI (ACHN renal) was greater than 100 µM and the TGI (A498 renal) was greater than 100 µM. The TGI (NCI-H522 lung) was greater than 100 µM.
